Article PMC3199943, “Screening the MayBridge Rule of 3 Fragment Library for Compounds That Interact with the Trypanosoma brucei myo-Inositol-3-Phosphate Synthase and/or Show Trypanocidal Activity” (Molecular Biology International, 2011)
Where two headings read alike, the source gives them in different places.

Key:
A549 cells = assay: Cytotoxicity against A549 cells, Alamar Blue; assay type: cell-based; settings: Supplementary Table 1, compound 0.5 mM, percentage of controls (n=1); for viability at 500 µM: Homo sapiens, A549, 65 h
Summary of the method: (§1)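 Alamar Blue read-out after a 5 h dye incubation that followed ~65 h compound exposure. Cells: HeLa or A549, 2 × 10^4/well, DMEM + 10% FCS + 2 mM L-Glutamine.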

HeLa cells = assay: cells; settings: for viability at 500 µM: 65 h; for HeLa Cells Alamar Blue: Supplementary Table 1
Summary of the method: as §1

[1] = Homo sapiens, HeLa, read-out: HeLa Cells Alamar Blue
[2] = compound 0.5 mM, percentage of controls, mean ± SD (n=3) or SE (n=2)
[3] = Homo sapiens, HeLa, read-out: HeLa Cells Alamar Blue, Supplementary Table 1, compound 0.5 mM, percentage of controls, mean ± SD (n=3) or SE (n=2)

| Structure (SMILES) | viability at 500 µM (A549 cells) | viability at 500 µM (HeLa cells; [1]) | A549 Cells Alamar Blue (A549 cells) | HeLa Cells Alamar Blue (HeLa cells; [2]) | other results |
| --- | --- | --- | --- | --- | --- |
| NCCOc1ccccc1 [compound 122, 2‐phenoxyethylamine] | 100% | 73.6 ± 5.4% | – | – | – |
| Cc1noc(N)c1C [compound 32, 3,4‐dimethylisoxazol‐5‐amine] | 71.7% | 76.4 ± 5.7% | – | – | – |
| O=C(O)CSc1ccc(Cl)cc1 [compound 641, 2‐[(4‐chlorophenyl)thio]acetic acid] | 119% | 105 ± 3.7% | – | – | – |
| c1ccc(Cn2cccc2)nc1 [compound 249, 2‐(1H‐pyrrol‐1‐ylmethyl)pyridine] | 83.6% | 93.1 ± 19.9% | – | – | – |
| Nc1ccc(-n2cccc2)cc1 [compound 250, 4‐(1H‐pyrrol‐1‐yl)aniline] | 89.1% | 107 ± 16.6% | – | – | CC50 (HeLa cells; Homo sapiens, HeLa, read-out: HeLa ED50): 1.4 ± 0.1 mM |
| OCC1COc2ccccc2O1 (stereo not drawn) [compound 319, 2,3‐dihydro‐1,4‐benzodioxin‐2‐ylmethanol] | – | – | 86.4 percentage of controls | 102.6 ± 5.1 percentage of controls | – |
| Cn1nc(-c2ccccc2)cc1CO [compound 524, (1‐methyl‐3‐phenyl‐1H‐pyrazol‐5‐yl)methanol] | – | – | 60.7 percentage of controls | 88.2 ± 10.3 percentage of controls | – |
| CCOC(=O)c1sc(Cl)nc1C [compound 672, ethyl 2‐chloro‐4‐methyl‐1,3‐thiazole‐5‐carboxylate] | – | – | 60.5 percentage of controls | 89.6 ± 12.5 percentage of controls | – |
| CCCc1ccc(NC(C)=O)cc1 [compound 426, N1‐(4‐propylphenyl)acetamide] | 71.7% | 89.8 ± 10.8% | – | – | – |
| O=C(O)C1COc2ccccc2C1 (stereo not drawn) [compound 431, 3‐chromanecarboxylic acid] | 95.8% | 102 ± 5.9% | – | – | – |
| Nc1ncccc1OCc1ccccc1 [compound 624, 3‐(benzyloxy)pyridin‐2‐amine] | 82.7% | – | – | – | viability at 500 µM (HeLa cells; [3]): 72.9 ± 14.8% |
| COc1cc2c(cc1OC)C(C)=NCC2 [compound 664, 6,7‐dimethoxy‐1‐methyl‐3,4‐dihydroisoquinoline] | – | – | 77.7 percentage of controls | 75.4 ± 2.2 percentage of controls | – |
| COC(=O)c1cc2ccsc2[nH]1 [compound 463, methyl 6H‐thieno[2,3‐b]pyrrole‐5‐carboxylate] | – | – | 59.7 percentage of controls | 101.3 ± 11 percentage of controls | – |
| OCc1ccccc1-c1cccs1 [compound 543, (2‐thien‐2‐ylphenyl)methanol] | 56.5% | 73.9 ± 3.7% | – | – | – |
| FC(F)(F)c1cc[nH]n1 [compound 114, 3‐(trifluoromethyl)‐1H‐pyrazole] | 73.8% | 85.9 ± 6.1% | – | – | – |
| Cc1cc(C(F)(F)F)c(C#N)cn1 [compound 498, 6‐methyl‐4‐(trifluoromethyl)nicotinonitrile] | – | – | 107.7 percentage of controls | 102.9 ± 18.5 percentage of controls | – |
| OCc1ccc(-c2cccnc2)cc1 [compound 489, (4‐pyrid‐3‐ylphenyl)methanol] | 131% | 66.4 ± 18.8% | – | – | – |
| OCc1ncoc1-c1ccccc1 [compound 397, (5‐phenyl‐1,3‐oxazol‐4‐yl)methanol] | 56.4% | 18.2 ± 7.9% | – | – | – |
| N#Cc1ccc(N2CCNCC2)cc1 [compound 518, 4‐Piperazin‐1‐yl‐benzonitrile] | 84.7% | 92.1 ± 11% | – | – | – |
| OCc1ccc(-c2cncnc2)cc1 [compound 505, (4‐pyrimidin‐5‐ylphenyl)methanol] | 85.3% | 78.6 ± 20% | – | – | – |
| COc1ccc(CC#N)cc1 [compound 161, 2‐(4‐methoxyphenyl)acetonitrile] | 88.7% | – | – | – | viability at 500 µM (HeLa cells; [3]): 108 ± 3.1% |
| CC(=O)c1cc2cc(Cl)ccc2o1 [compound 589, 1‐(5‐chlorobenzo[b]furan‐2‐yl)ethan‐1‐one] | – | – | 99.5 percentage of controls | 95.8 ± 12.5 percentage of controls | – |
